Test results from ChEMBL document CHEMBL3991601, “The target landscape of clinical kinase drugs” (Science, 2017).
Active and inactive are the calls of the source.

Columns and labels:
[1] = target: Cyclin-dependent kinase 5 (Homo sapiens, UniProt Q00535)
Ephrin type-B receptor 3 = target: T1, Ephrin type-B receptor 3 (Homo sapiens, UniProt P54753)
T1 sequence (P54753 whole entry): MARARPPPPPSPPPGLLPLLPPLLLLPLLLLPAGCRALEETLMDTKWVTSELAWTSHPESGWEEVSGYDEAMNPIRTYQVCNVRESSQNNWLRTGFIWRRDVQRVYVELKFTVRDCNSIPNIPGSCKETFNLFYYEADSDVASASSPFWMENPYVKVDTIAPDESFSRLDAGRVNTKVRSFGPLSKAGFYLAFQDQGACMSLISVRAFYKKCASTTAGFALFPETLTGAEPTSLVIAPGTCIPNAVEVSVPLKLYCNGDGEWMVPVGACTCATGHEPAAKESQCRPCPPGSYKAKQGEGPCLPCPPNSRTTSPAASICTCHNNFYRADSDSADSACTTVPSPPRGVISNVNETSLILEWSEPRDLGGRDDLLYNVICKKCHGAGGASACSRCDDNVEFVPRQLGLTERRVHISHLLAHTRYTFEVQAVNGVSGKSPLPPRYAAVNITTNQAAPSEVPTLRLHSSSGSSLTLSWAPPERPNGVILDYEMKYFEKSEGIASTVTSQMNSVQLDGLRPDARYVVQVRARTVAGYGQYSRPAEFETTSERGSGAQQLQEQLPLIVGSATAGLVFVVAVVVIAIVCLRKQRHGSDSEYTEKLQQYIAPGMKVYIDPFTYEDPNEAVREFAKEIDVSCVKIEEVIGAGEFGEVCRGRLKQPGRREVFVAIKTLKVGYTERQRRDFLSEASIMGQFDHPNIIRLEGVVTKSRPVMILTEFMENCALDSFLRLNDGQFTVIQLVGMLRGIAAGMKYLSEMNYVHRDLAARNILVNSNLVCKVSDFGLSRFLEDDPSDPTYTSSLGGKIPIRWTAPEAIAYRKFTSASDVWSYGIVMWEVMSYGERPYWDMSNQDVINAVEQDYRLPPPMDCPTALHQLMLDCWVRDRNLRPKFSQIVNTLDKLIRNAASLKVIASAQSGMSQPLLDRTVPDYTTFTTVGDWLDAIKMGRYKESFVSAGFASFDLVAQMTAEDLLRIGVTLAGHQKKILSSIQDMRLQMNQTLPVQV

[2] = target: T2, Probable ATP-dependent RNA helicase DDX6 (Homo sapiens, UniProt P26196)
T2 sequence (P26196 whole entry): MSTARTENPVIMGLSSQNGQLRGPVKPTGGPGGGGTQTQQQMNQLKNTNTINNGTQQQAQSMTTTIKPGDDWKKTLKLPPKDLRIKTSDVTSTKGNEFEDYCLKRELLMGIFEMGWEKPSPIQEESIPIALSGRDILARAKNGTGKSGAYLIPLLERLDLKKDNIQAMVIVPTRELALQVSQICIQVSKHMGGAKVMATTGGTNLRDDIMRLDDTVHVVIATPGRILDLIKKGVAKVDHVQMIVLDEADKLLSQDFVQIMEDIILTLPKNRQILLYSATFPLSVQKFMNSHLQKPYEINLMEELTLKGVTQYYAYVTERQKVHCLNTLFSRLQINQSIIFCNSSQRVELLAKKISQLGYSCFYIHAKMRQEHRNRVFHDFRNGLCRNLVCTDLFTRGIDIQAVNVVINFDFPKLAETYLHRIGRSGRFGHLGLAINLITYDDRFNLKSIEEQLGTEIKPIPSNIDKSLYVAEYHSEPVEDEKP

[3] = target: T3, Serine/threonine-protein kinase A-Raf (Homo sapiens, UniProt P10398)
T3 sequence (P10398 whole entry): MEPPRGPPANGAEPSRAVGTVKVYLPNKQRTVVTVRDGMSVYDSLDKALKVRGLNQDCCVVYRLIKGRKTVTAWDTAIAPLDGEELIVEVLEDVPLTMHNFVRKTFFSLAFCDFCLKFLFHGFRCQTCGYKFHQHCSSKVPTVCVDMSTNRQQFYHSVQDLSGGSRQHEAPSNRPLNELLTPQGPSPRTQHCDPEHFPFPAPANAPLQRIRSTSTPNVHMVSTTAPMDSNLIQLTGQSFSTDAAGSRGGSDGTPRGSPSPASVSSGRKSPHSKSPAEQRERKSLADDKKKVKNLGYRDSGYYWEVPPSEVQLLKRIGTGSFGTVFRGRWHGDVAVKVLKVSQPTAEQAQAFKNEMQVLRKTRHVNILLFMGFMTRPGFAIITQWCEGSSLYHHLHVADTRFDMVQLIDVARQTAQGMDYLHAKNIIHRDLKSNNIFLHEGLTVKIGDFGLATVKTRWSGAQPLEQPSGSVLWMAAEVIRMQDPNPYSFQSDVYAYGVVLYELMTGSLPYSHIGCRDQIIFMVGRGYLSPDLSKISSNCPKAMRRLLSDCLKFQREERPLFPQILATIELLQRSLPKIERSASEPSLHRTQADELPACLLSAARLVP

[4] = target: T4, Phosphatidylinositol 5-phosphate 4-kinase type-2 gamma (Homo sapiens, UniProt Q8TBX8)
T4 sequence (Q8TBX8 whole entry): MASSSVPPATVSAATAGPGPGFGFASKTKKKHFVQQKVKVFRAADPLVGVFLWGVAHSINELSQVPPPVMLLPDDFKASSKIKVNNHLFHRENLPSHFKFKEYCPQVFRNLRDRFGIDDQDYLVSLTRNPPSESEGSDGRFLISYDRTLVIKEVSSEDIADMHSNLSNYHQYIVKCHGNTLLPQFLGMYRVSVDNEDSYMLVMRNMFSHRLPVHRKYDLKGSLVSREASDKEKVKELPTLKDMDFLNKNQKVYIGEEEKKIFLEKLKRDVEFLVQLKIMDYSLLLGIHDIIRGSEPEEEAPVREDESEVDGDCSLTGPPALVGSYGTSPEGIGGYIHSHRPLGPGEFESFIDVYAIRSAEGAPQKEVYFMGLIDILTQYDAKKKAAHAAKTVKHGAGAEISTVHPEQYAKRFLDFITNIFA
Also: in the data inactive means no Kd found up to 30 µM.

Sequence of Cyclin-dependent kinase 5 (Q00535 whole entry): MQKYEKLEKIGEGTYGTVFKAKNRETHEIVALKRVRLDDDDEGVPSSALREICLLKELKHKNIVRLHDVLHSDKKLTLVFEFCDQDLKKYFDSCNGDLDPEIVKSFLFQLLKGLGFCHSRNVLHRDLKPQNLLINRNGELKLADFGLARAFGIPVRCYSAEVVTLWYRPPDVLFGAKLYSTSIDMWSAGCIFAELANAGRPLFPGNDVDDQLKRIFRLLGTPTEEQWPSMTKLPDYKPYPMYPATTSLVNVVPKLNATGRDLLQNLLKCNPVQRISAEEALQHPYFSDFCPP

SMILES	Kd [1]	Kd (Ephrin type-B receptor 3)	Kd [2]	Kd [3]	Kd [4]
C[C@@H](Oc1cc(C(=O)Nc2ccc(C(=O)N3CCN(C)CC3)cc2)nnc1N)c1c(Cl)ccc(F)c1Cl	> 30 µM (inactive)	> 30 µM (inactive)	> 30 µM (inactive)	> 30 µM (inactive)	> 30 µM (inactive)
C[C@H]1CNCCCN1S(=O)(=O)c1cccc2cncc(F)c12	> 30 µM (inactive)	> 30 µM (inactive)	> 30 µM (inactive)	> 30 µM (inactive)	> 30 µM (inactive)
CC(=O)c1cnc2ccc(-c3cc(Cl)c(O)c(Cl)c3)nc2c1N[C@H]1CC[C@H](CN(C)C)CC1	0.253 µM (active)	> 30 µM (inactive)	> 30 µM (inactive)	> 30 µM (inactive)	0.003 µM
CCNC(=O)C#Cc1ccc2c(c1)NC(=O)/C2=C(\Nc1ccc(CN(C)C)cc1)c1ccccc1	> 30 µM (inactive)	> 30 µM (inactive)	> 30 µM (inactive)	–	> 30 µM (inactive)
C=CC(=O)N1CCC[C@H](n2c(=O)n(-c3ccc(Oc4ccccc4)cc3)c3c(N)ncnc32)C1	> 30 µM (inactive)	> 30 µM (inactive)	> 30 µM (inactive)	–	> 30 µM (inactive)
Cc1nc2cc(-c3nn(C(C)C)c4ncnc(N)c34)ccc2o1	> 30 µM (inactive)	> 30 µM (inactive)	> 30 µM (inactive)	> 30 µM (inactive)	> 30 µM (inactive)
COCc1c(-c2ccc(NC(=O)Nc3cc(C(F)(F)F)ccc3F)c(F)c2)c2c(N)ncnn2c1CN1CCOCC1	> 30 µM (inactive)	> 30 µM (inactive)	> 30 µM (inactive)	> 30 µM (inactive)	> 30 µM (inactive)
COc1cc(Nc2ncc3c(n2)-c2ccc(Cl)cc2C(c2c(F)cccc2OC)=NC3)ccc1C(=O)O [ALISERTIB]	–	–	> 30 µM (inactive)	> 30 µM (inactive)	–
Cc1nc(NC(=O)N2CCC[C@H]2C(N)=O)sc1-c1ccnc(C(C)(C)C(F)(F)F)c1 [ALPELISIB]	> 30 µM (inactive)	> 30 µM (inactive)	> 30 µM (inactive)	> 30 µM (inactive)	–
O=C(Nc1c[nH]nc1-c1nc2cc(CN3CCOCC3)ccc2[nH]1)NC1CC1 [AT-9283]	–	> 30 µM (inactive)	> 30 µM (inactive)	> 30 µM (inactive)	> 30 µM (inactive)
C=CC(=O)Nc1cc2c(Nc3ccc(F)c(Cl)c3)ncnc2cc1C#CC(C)(C)N1CCN(C)CC1 [AV-412 FREE BASE]	> 30 µM (inactive)	> 30 µM (inactive)	> 30 µM (inactive)	> 30 µM (inactive)	> 30 µM (inactive)
CNC(=O)c1ccccc1Sc1ccc2c(/C=C/c3ccccn3)n[nH]c2c1 [AXITINIB]	–	–	> 30 µM (inactive)	> 30 µM (inactive)	–
COc1cc([C@@H]2c3cc4c(cc3[C@H](O)[C@H]3COC(=O)[C@@H]23)OCO4)cc(OC)c1OC [AXL-1717]	> 30 µM (inactive)	> 30 µM (inactive)	> 30 µM (inactive)	> 30 µM (inactive)	> 30 µM (inactive)
Cn1cc(C2=C(c3cn(C4CCN(Cc5ccccn5)CC4)c4ccccc34)C(=O)NC2=O)c2ccccc21 [ENZASTAURIN]	–	–	> 30 µM (inactive)	> 30 µM (inactive)	–
Cc1nc2cc(-n3ncc(C(=O)c4cc5ccccc5[nH]4)c3N)ccc2[nH]1 [FGFR INHIBITOR DEBIO 1347]	> 30 µM (inactive)	> 30 µM (inactive)	> 30 µM (inactive)	–	> 30 µM (inactive)
O=C(Nc1cc(C(F)(F)F)cc(C(F)(F)F)c1)c1cc(Cl)ccc1O [IMD-0354]	–	> 30 µM (inactive)	> 30 µM (inactive)	> 30 µM (inactive)	> 30 µM (inactive)
CNC(=O)c1nn(C)c2c1C(C)(C)Cc1cnc(Nc3ccc(N4CCN(C)CC4)cc3)nc1-2 [MILCICLIB]	–	–	> 30 µM (inactive)	> 30 µM (inactive)	1.43 µM (active)
Cc1[nH]c(/C=C2\C(=O)Nc3ccccc32)c(C)c1CCC(=O)O [ORANTINIB]	–	> 30 µM (inactive)	> 30 µM (inactive)	> 30 µM (inactive)	–
N#CC[C@H](C1CCCC1)n1cc(-c2ncnc3[nH]ccc23)cn1 [RUXOLITINIB]	–	–	> 30 µM (inactive)	> 30 µM (inactive)	–
C[C@@H](NC(=O)c1ncnc(N)c1Cl)c1ncc(C(=O)Nc2cc(C(F)(F)F)c(Cl)cn2)s1 [TOVORAFENIB]	> 30 µM (inactive)	> 30 µM (inactive)	–	> 30 µM (inactive)	> 30 µM (inactive)

Continued, values first:

Kd [1]	Kd (Ephrin type-B receptor 3)	Kd [2]	Kd [3]	Kd [4]	SMILES
> 30 µM (inactive)	> 30 µM (inactive)	> 30 µM (inactive)	> 30 µM (inactive)	> 30 µM (inactive)	Nc1ncnc2c1c(-c1cccc(OCc3ccccc3)c1)cn2[C@H]1C[C@@H](CN2CCC2)C1 [AEW-541]
> 30 µM (inactive)	> 30 µM (inactive)	> 30 µM (inactive)	> 30 µM (inactive)	–	Cc1csc(-c2nnc(Nc3ccc(Oc4ncccc4-c4ccnc(N)n4)cc3)c3ccccc23)c1 [AMG-900]
–	–	> 30 µM (inactive)	> 30 µM (inactive)	–	C[C@@H](Oc1cc(-n2cnc3ccc(CN4CCN(C)CC4)cc32)sc1C(N)=O)c1ccccc1C(F)(F)F [GSK-461364]
> 30 µM (inactive)	> 30 µM (inactive)	> 30 µM (inactive)	> 30 µM (inactive)	–	CCn1cc(-c2ccnc3[nH]c(-c4cccc(CN(C)C)c4)cc23)c(-c2ccc(NC(=O)N(C)C)cc2)n1 [GSK-1070916]
–	> 30 µM (inactive)	> 30 µM (inactive)	> 30 µM (inactive)	–	NC(=O)c1c(OCc2c(F)cc(Br)cc2F)nsc1NC(=O)NCCCCN1CCCC1 [OSI-632]
–	> 30 µM (inactive)	> 30 µM (inactive)	> 30 µM (inactive)	> 30 µM (inactive)	CC(=O)NCC(=O)N1[C@@H]2CC[C@H]1c1ccc(Nc3ncc(C(F)(F)F)c(NC4CCC4)n3)cc12 [PF-03814735]
–	–	> 30 µM (inactive)	> 30 µM (inactive)	–	O=C(NOCCO)c1cc(CN2OCCCC2=O)c(F)c(F)c1Nc1ccc(I)cc1F [RO-4987655]
> 30 µM (inactive)	–	> 30 µM (inactive)	> 30 µM (inactive)	> 30 µM (inactive)	CCS(=O)(=O)c1cccc(-c2cc(C(=O)NC3CCN(C)CC3)c(C)c3[nH]c4ncc(C)cc4c23)c1 [TAK-901]
